Holding throughout (assay type): biochemical
Experiment [1] has as its target T1, Flt3 kinase (Homo sapiens, UniProt P36888).
T1 construct: purchased Millipore (KinaseProfiler Service) / Reaction Biology Corp. (Kinase Hotspot)
T1 sequence (P36888 27-993): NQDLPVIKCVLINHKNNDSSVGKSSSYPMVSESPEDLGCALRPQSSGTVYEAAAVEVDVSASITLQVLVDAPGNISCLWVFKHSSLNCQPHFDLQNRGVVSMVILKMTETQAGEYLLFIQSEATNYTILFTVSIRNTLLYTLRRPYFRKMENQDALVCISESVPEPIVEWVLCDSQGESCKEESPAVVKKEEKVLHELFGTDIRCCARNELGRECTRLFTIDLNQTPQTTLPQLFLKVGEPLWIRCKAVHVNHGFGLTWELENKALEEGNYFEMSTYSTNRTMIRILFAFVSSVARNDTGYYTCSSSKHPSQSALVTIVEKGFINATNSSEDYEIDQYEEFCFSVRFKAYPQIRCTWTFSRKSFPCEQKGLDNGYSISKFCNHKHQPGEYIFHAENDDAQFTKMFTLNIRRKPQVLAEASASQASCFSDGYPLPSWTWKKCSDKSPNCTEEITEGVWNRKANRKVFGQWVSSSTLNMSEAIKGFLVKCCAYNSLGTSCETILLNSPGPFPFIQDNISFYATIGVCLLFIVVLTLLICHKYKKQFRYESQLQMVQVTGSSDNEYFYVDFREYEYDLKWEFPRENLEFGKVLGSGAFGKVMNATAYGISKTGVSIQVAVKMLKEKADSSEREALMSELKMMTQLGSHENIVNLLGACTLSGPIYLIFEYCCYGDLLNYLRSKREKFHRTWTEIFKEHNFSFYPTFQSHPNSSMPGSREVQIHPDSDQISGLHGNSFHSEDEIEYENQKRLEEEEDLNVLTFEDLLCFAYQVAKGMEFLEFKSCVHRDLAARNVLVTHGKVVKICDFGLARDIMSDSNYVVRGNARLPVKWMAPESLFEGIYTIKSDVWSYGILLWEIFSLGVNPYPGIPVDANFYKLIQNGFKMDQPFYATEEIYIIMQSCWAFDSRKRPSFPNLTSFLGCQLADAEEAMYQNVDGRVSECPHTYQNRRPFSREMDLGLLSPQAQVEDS
In words: Flt3 kinase assay (KinaseProfiler / Kinase Hotspot). The settings on record: compound at 1 μM. The protocol:
(§1) This example illustrated c-Src kinase, Aurora-A kinase, Flt3 kinase, Ret kinase and TrkA Kinase Assays of selected Compounds from this invention (referred to Daniele Fancelli et al, J. Med. Chem., 2006, 49 (24), pp 7247-7251). The KinaseProfiler™ Service Assay Protocols (Millipore) were used to test the kinase inhibiting activity of novel compounds from this invention. To do this, the buffer composition was as: 20 mM MOPS, 1 mM EDTA, 0.01% Brij-35, 5% Glycerol, 0.1% […], 1 mg/mL BSA. Test compounds were initially dissolved in DMSO at the desired concentration, then serially diluted to the kinase assay buffer. In a final reaction volume of 25 μL, Aurora-A(h) (5-10 mU) is incubated with 8 mM MOPS pH 7.0, 0.2 mM EDTA, 200 μM LRRASLG (Kemptide), 10 mM MgAcetate and [γ^33P-ATP]. The reaction was initiated by the addition of the MgATP mix. After incubation for 40 minute at room temperature, the reaction was stopped by addition of 5 μL of a 3% phosphoric acid solution. 10 μL of the reaction was then spotted onto a P30 filtermat and washed three times for 5 minutes in 50 mM phosphoric acid and once in methanol prior to drying and scintillation counting. Wells containing substrate but no kinase and wells containing a phosphopeptide control were used to set 0% and 100% phosphorylation value, repectively.
(§2) Also Kinase Hotspot™ kinase assay was used to test the compounds for IC50 or % inhibitions (Reaction Biology Corp.). Inhibitor IC50 values were determined by titration of compound at the optimal kinase concentration (Kinase EC50).

The target of experiment [2] is T2, Ret kinase (Homo sapiens, UniProt P07949).
T2 construct: purchased Millipore (KinaseProfiler Service) / Reaction Biology Corp. (Kinase Hotspot)
In words: Ret kinase assay (KinaseProfiler / Kinase Hotspot). Conditions: compound at 1 μM. The protocol:
as §1, §2

Experiment [3] addresses T3, c-Src kinase (Homo sapiens, UniProt P12931).
T3 construct: purchased Millipore (KinaseProfiler Service) / Reaction Biology Corp. (Kinase Hotspot)
In words: c-Src kinase assay (KinaseProfiler / Kinase Hotspot). The settings on record: compound at 1 μM; read-out: % Inhibition @1 μM cSrc. The protocol: as §1, §2

Experiment [4] addresses T4, TrkA Kinase (Homo sapiens, UniProt P04629).
T4 construct: purchased Millipore (KinaseProfiler Service) / Reaction Biology Corp. (Kinase Hotspot)
In words: TrkA kinase assay (KinaseProfiler / Kinase Hotspot). The settings on record: compound at 1 μM. The protocol: as §1, §2

In experiment [5] the target is T5, Aurora-A(h) (Homo sapiens, UniProt O14965).
T5 construct: purchased Millipore (KinaseProfiler Service) / Reaction Biology Corp. (Kinase Hotspot)
T5 sequence (O14965 1-403): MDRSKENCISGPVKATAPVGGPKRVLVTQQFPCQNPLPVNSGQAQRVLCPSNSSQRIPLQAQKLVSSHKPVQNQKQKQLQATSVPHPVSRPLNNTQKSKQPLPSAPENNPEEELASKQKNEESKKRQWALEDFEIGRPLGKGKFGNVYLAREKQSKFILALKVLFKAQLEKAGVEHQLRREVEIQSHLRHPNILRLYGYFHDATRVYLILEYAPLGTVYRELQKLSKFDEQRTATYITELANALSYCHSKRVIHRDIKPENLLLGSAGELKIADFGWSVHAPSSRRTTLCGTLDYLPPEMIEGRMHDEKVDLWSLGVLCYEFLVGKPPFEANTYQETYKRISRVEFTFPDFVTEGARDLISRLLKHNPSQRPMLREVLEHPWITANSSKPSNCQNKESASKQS
In words: Aurora-A kinase assay (KinaseProfiler / Kinase Hotspot). The settings on record: compound at 1 μM; read-out: % Inhibition @1 μM Auroro-A. Here is the method:
as §1, §2

T4 sequence (P04629 33-796): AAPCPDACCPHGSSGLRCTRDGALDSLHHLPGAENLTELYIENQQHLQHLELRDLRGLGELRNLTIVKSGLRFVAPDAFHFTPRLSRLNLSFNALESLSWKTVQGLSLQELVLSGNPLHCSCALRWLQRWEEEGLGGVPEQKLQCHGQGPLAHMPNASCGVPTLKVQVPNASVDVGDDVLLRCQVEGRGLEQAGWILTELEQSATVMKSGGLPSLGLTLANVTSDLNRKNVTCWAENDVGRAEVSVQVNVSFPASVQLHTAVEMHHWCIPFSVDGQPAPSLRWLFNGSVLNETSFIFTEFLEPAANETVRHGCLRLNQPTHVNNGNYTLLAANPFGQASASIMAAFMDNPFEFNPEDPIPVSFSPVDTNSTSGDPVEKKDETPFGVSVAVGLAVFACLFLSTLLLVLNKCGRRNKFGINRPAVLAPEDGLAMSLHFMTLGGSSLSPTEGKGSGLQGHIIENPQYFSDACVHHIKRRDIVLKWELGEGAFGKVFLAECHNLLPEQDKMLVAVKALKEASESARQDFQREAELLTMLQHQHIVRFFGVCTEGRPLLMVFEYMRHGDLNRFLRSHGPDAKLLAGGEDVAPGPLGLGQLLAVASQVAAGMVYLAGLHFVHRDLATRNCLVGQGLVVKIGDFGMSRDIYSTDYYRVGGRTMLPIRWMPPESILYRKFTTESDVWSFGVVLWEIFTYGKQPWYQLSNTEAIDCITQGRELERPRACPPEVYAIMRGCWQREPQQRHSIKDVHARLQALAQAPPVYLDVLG
T3 sequence (P12931 whole entry): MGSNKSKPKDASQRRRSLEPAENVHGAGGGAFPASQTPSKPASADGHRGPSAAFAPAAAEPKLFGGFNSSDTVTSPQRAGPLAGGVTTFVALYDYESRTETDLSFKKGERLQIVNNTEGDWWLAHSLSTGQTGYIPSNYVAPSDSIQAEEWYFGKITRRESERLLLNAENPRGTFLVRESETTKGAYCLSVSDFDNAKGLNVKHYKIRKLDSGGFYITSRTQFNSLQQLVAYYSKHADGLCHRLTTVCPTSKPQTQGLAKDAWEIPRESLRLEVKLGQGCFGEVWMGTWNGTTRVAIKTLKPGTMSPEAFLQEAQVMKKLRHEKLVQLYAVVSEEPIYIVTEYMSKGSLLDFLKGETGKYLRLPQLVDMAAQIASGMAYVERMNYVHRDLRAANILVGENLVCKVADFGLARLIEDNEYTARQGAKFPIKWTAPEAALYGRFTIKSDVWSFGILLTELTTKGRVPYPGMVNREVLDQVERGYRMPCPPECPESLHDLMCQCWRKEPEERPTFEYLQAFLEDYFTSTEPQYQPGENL
T2 sequence (P07949 29-1114): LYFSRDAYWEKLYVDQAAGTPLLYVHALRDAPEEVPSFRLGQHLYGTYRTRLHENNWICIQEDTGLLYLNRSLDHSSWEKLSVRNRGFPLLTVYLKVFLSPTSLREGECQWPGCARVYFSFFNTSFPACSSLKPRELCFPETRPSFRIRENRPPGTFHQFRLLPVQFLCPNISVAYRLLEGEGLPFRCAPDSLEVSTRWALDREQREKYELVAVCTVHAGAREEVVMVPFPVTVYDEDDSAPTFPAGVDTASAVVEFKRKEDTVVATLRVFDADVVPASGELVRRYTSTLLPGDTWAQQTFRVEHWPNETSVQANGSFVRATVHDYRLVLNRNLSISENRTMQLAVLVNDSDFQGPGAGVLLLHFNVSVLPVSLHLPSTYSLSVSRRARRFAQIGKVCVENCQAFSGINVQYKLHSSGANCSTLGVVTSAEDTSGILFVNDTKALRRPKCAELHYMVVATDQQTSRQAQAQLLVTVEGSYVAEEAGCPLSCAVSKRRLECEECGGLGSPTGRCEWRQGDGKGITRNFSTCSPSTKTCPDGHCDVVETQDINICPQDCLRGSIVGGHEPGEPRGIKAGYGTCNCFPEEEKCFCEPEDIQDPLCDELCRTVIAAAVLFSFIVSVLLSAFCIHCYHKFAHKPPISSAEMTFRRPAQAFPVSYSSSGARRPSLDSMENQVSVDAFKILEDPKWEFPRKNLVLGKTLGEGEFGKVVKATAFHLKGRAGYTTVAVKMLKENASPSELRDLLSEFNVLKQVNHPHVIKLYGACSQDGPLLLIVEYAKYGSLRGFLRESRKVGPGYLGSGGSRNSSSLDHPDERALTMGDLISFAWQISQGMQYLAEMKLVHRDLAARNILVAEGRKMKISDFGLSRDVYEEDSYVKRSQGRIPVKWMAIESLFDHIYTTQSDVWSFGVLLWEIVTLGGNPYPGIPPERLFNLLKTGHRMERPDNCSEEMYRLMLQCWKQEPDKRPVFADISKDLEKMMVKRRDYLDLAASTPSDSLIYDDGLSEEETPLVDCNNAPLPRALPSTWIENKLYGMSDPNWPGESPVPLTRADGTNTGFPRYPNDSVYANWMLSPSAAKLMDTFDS

By inhibition is commonly meant the share of the control response that was lost under treatment. As for `Cc1cc(Nc2nc(C#Cc3ccccc3)nc(N3CCN(C)CC3)n2)n[nH]1` [Example 3], the inhibition at 1 µM in experiment [1] was 50 to 90%; in experiment [2] it was 50 to 90%; in experiment [3], below 50%; in experiment [4], above 90%; in experiment [5], 50 to 90%.
`Cc1cc(Nc2nc(/C=C\c3ccccc3)nc(N3CCN(C)CC3)n2)n[nH]1` [Example 4]: the inhibition at 1 µM in experiment [1] is 50 to 90%; in experiment [2], below 50%; in experiment [3], below 50%; in experiment [4], 50 to 90%; in experiment [5] it was 50 to 90%.
Turning to `Cc1cc(Nc2nc(/C=C/c3ccccc3)nc(N3CCN(C)CC3)n2)n[nH]1` [Example 7], the inhibition at 1 µM was above 90% in experiment [1]; 50 to 90% in experiment [2]; 50 to 90% in experiment [3]; above 90% in experiment [4]; above 90% in experiment [5].
On to `Cc1cc(Nc2nc(/C=C/c3ccc(Cl)cc3)nc(N3CCN(C)CC3)n2)n[nH]1` [Example 8], for which the inhibition at 1 µM was above 90% in experiment [1]; 50 to 90% in experiment [2]; 50 to 90% in experiment [3]; above 90% in experiment [4]; 50 to 90% in experiment [5].
`Cc1ccc(/C=C/c2nc(Nc3cc(C)[nH]n3)nc(N3CCN(C)CC3)n2)cc1` [Example 9]: the inhibition at 1 µM in experiment [1] was 50 to 90%; in experiment [2] it was 50 to 90%; in experiment [3] it was below 50%; in experiment [4], above 90%; in experiment [5], 50 to 90%.
Regarding `Cc1cc(Nc2nc(/C=C/c3ccccc3Cl)nc(N3CCN(C)CC3)n2)n[nH]1` [Example 10], the inhibition at 1 µM in experiment [1] was above 90%; in experiment [2], below 50%; in experiment [3] it was 50 to 90%; in experiment [4], above 90%; in experiment [5], 50 to 90%.
As for `Cc1cc(Nc2nc(/C=C/c3cccc(Cl)c3)nc(N3CCN(C)CC3)n2)n[nH]1` [Example 11], the inhibition at 1 µM in experiment [1] is above 90%; in experiment [2], below 50%; in experiment [3], 50 to 90%; in experiment [4], above 90%; in experiment [5] it was 50 to 90%.
For `Cc1cc(Nc2nc(/C=C/c3nccs3)nc(N3CCN(C)CC3)n2)n[nH]1` [Example 12], the inhibition at 1 µM in experiment [1] is above 90%; in experiment [2], below 50%; in experiment [3], 50 to 90%; in experiment [4], 50 to 90%; in experiment [5], 50 to 90%.
For `Cc1cnc(Nc2nc(/C=C/c3ccccc3)nc(N3CCN(C)CC3)n2)s1` [Example 17], the inhibition at 1 µM in experiment [1] was above 90%; in experiment [2], below 50%; in experiment [3], 50 to 90%; in experiment [4], above 90%; in experiment [5] it was 50 to 90%.
As for `CN1CCN(c2nc(/C=C/c3ccccc3)nc(Nc3cc(-c4ccccc4)[nH]n3)n2)CC1` [Example 18], the inhibition at 1 µM in experiment [1] was above 90%; in experiment [2] it was 50 to 90%; in experiment [3], 50 to 90%; in experiment [4] it was above 90%; in experiment [5] it was 50 to 90%.
For `C/C=C/c1cc(Nc2nc(/C=C/c3ccccc3)nc(N3CCN(C)CC3)n2)n[nH]1` [Example 19], the inhibition at 1 µM is 50 to 90% in experiment [1]; 50 to 90% in experiment [2]; above 90% in experiment [3]; above 90% in experiment [4]; 50 to 90% in experiment [5].

Values taken from patent US20120178758A1, “STYRYL-TRIAZINE DERIVATIVES AND THEIR THERAPEUTICAL APPLICATIONS” (CALIFORNIA CAPITAL EQUITY, LLC, priority 2009, published 2012).
